PMC10153361, “Mechanism of imidazole inhibition of a GH1 β‐glucosidase” (FEBS Open Bio, 2023)

Tests used:
[1] = molecular target: T1, Sfβgly (GH1 β-glucosidase from Spodoptera frugiperda) (Spodoptera frugiperda, UniProt O61594); test: initial-rate kinetics, Lineweaver-Burk and secondary plots, p-nitrophenolate release; type: biochemical
T1 construct: recombinant, E. coli BL21(DE3), vector pET46, Ni-NTA purified; secreted digestive midgut enzyme; catalytic residues E187 and E399
Excerpt: initial-rate kinetics, Lineweaver-Burk and secondary plots, p-nitrophenolate release on Sfβgly (GH1 β-glucosidase from Spodoptera frugiperda)

[2] = molecular target: T1, Sfβgly (GH1 β-glucosidase from Spodoptera frugiperda); test: initial-rate kinetics, Lineweaver-Burk plots, p-nitrophenolate release; type: biochemical; settings: competitive; also a substrate; substrate p-nitrophenyl β-glucoside; 100 mM phosphate pH 6.0, 30 °C

T1 sequence (O61594 21-509): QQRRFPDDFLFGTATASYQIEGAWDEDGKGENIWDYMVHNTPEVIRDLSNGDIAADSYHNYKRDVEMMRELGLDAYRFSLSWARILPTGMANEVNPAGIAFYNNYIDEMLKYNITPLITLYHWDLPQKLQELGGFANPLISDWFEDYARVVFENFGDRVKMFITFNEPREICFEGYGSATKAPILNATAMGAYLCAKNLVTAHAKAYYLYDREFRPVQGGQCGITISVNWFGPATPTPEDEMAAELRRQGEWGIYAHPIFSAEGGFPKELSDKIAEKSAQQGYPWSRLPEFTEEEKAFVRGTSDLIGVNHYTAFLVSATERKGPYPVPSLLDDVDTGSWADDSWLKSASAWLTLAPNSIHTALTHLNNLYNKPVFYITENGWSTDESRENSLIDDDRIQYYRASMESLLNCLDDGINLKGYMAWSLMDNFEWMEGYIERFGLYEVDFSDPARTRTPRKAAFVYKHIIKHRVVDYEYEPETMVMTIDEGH

| SMILES | Ki [1] [mM] | Ki [2] [mM] |
| --- | --- | --- |
| c1c[nH]cn1 [imidazole] | 15.3 ± 0.3 | – |
| OC[C@H]1O[C@@H](O[C@H]2[C@H](O)[C@@H](O)C(O)O[C@@H]2CO)[C@H](O)[C@@H](O)[C@@H]1O (some centres unmarked) [C2, cellobiose] | – | 10 |
